Source: patent US20230137491A1, “PEPTIDES AND USES THEREOF” (SINTICA BIOTECH SOCIETÀ A RESPONSABILITÀ LIMITATA …, priority 2020, published 2023)
Non-standard residues stand in square brackets, D forms with d. methoxy‑PEG 20 kDa = linear 20 kDa methoxy-PEG conjugated through D-Cys sulfur

Assays:
[1] = system: melanoma cells derived from patient with BRAF mutation in zebrafish; test: Zebrafish xenotransplant with melanoma cells from a patient with BRAF mutation; type: in vivo; conditions: embryos with metastasis counted 5 days post injection, versus control
Description: FIG. 11. The peptide reduces initial metastasis formation in zebrafish injected with melanoma cells. Metastatic melanoma cells from a patient with BRAF mutation were treated with the peptide, DTIC, the peptide in combination with DTIC, DTIC alone, BRAF inhibitor or left untreated. They were stained with Vibrant Cell Labelling Solution (red) and injected into the yolk of transparent zebrafish larvae and monitored. The number of embryos with metastasis was counted at 5 days post injection.
The use of melanoma biopsies was approved by the ethical committee (Comitato Etico dell'Area Vasta Emilia Nord). Biopsies were taken from the University Hospital Policlinico of Modena and patient gave inform consent. […]
(§1) Zebrafish handling was performed at the Zebrafish Centre of the University of Padova, Italy, under ethical committee (OPBA) authorization 407/2015-PR. […] Zebrafishes were monitored daily and documented from 1 day post injection (dpi) up to 1 week (experimental endpoint). […]
(§2) For xenotransplantation, albino embryos were mechanically dechorionated at 2 days post-fertilisation, anesthetized with tricaine 0.16 mg/ml and placed along plastic lanes immersed in 2% methylcellulose/PBS. […] Stained cells were loaded in a glass capillary needle and microinjected into the yolk (about 50 cells/embryo), Xenotransplanted embryos were monitored daily and documented from one day post injection up to one week.

[2] = system: WM115 CD271 silenced (siRNA) melanoma cell line; test: MTT assay in CD271-silenced (siRNA) cells; type: cell-based, human; conditions: WM115 transfected with CD271 siRNA
Source text: (§3) FIG. 6. The peptide reduces melanoma cell viability through CD271. WM115 melanoma cell line was transiently transfected with CD271 siRNA, as shwon by western blotting. MTT assay was used to measure cell viability after treatment with the peptide (XYZ) or the diluent in siRNA and scramble cells. SKme128 melanoma cell line was transiently transfected with CD271 mRNA, as shown by western blotting. MTT assay was used to measure cell viability after treatment with the peptide (XYZ) or the diluent in siRNA and scramble cells. Student's t-test was used for comparison of the means.
(§4) 5×10^3 cells/well were seeded in 96-well culture plates. At different time points, cells were incubated with 0.5% MTT (3-(4,5-dimethylthiazol-2-yl)-2,5-diphenyltetrazolium bromide) for 4 h at 37° C. and then dissolved with 100 μl Isopropanol with 0.04N HCl. The plate was read at 560 nm with a reference filter of 650 nm. Results are expressed as viability percentage, as compared to control.
Melanoma cells were plated in 2D for 24 h in antibiotic free medium. WM115 cell line was then transfected with scrambled or CD271 siRNA (50 nM and 100 nM, respectively) (Dharmacon Inc, Lafayette, Colo., USA) in antibiotic/FBS free medium supplemented with 0.1% BSA and 48 h later cells were seeded for MTT assay or lysed for western blotting.

[3] = system: melanoma cell lines (WM115, WM266-4, SKmel28, WM793B, 1205Lu); test: MTT assay in melanoma cell lines; type: cell-based, human
Description: as §4
Five melanoma cell lines were used for testing the efficacy of XYZ or its non-PEGylated peptide component: WM115 and WM266-4, which are respectively the primary and metastatic melanoma derived from the same patient and expressing high levels of CD271, and SKme128, a metastatic melanoma cell line expressing low levels of CD271, WM793B, a primary melanoma, and 1205Lu derived from lung metastatic melanoma. The viability of the cell culture is assessed by MTT conversion. MTT solution is applied to the plates and placed into a cell culture incubator for 4 hours. The blue formazan metabolite produced by viable cells is then extracted into isopropanol and absorbance is measured at 570 nm using a spectrophotometer.

[4] = system: primary and metastatic melanoma cell lines; test: Trypan blue viable cell counting in relation to CD271 levels by flow cytometry; type: cell-based, human; conditions: five primary and metastatic melanoma cell lines
Description: FIG. 4. The peptide-induced cell death correlates with CD271 expression levels in melanoma cell lines. Five primary and metastatic melanoma cell lines were cultured and viability measured by Trypan blue staining solution. Flow cytometry was used to evaluate the expression level of CD271 receptor. Because CD271 mediates apoptosis in many cell systems, we analysed the effect of XYZ in melanoma cell lines in relation to the levels of the receptor. After treatment, melanoma cell lines were harvested and incubated with Trypan Blue staining solution or incubated with CD271 antibody for flow cytometer analysis.

[5] = system: SKMel28 melanoma cell lines overexpressing CD271; test: MTT assay in cells overexpressing CD271 (CD271 viral vector); type: cell-based, human; conditions: SKMel28 with CD271 viral vector
Source text: as §3, §4
Skme128 cell line was plated according to the liquid overlay method. After 24 h, cells were transduced by infection with viral supernatant generated by CD271-LNSN packaging cells or by LNSN packaging cells (kindly provided from F. Mavilio) in appropriate medium for melanoma, as described previously in the presence of polybrene (8 μg/ml). 48 h after infection cells were lysed for WB analysis or seeded for MTT assay.

[6] = system: SKmel 28 cell line in zebrafish; test: Zebrafish xenotransplant with SKmel28 cell line; type: in vivo; conditions: SKmel28, embryos with metastasis counted 5 days post injection
Description: FIG. 12. […] SKMel28 melanoma cell line was treated with XYZ, DTIC, the peptide in combination with DTIC, or left untreated. They were stained with Vibrant Cell Labelling Solution (red) and injected into the yolk of transparent zebrafish larvae and monitored. The number of embryos with metastasis was counted at 5 days post injection.
as §1, with “407/2015-PR. Zebrafish embryos were obtained from natural spawning of albino adults, raised following standard protocols (Westerfield, M et al., 2000) and staged according to Kimmel et al. (1995).” for “407/2015-PR.”
as §2

Substance: Ac-DMet-DLeu-Gly-DIle-DIle-DAla-Gly-DLys-DAsn-DSer-Gly-DCys-NH2 with a linear 20 kDa methoxy-PEG polymer conjugated to the D-Cys residue through the sulfur atom of the latter (Ac-[dM][dL]G[dI][dI][dA]G[dK][dN][dS]G[dC](methoxy‑PEG 20 kDa)-NH2) [XYZ]
- metastasis formation in zebrafish [1]: reduces metastasis formation
- cell viability (MTT assay) in CD271-silenced cells [2]: fails to reduce cell viability
- cell proliferation (MTT assay), dose dependence ([3]; WM115, WM266-4 and SKmel28, different doses and time points): diminishes cell proliferation, as shown by MTT assay, in a dose-dependent manner
- cell proliferation (MTT assay) ([3]; five melanoma cell lines, 48 h and 96 h after treatment, no significant difference between PEGylated and non-PEGylated form): reduce cell proliferation
- cell death versus CD271 expression level (Trypan blue viable cell counting, flow cytometry) [4]: more efficacious in cell lines expressing higher levels of CD271
- cell death (MTT assay) in CD271-overexpressing cells [5]: induces cell death to a greater extent
- full metastasis in xenotransplanted zebrafish [6]: reduces full metastasis
